Measurements as given in patent US20240336654A1, “ANTIMICROBIAL PEPTIDOMIMETICS” (SPEXIS AG, priority 2021, published 2024).
Where a SMILES comes first, the peptide text is derived from it. Bridges are numbered along the chain shown (N, C = ends). [ ]: non-standard residue; d: D form. Dab(iPr) = CC(C)NCC[C@H](N)C(=O)O; Hyp = O=C(O)[C@@H]1C[C@@H](O)CN1; Cha = N[C@@H](CC1CCCCC1)C(=O)O; Cit = NC(=O)NCCC[C@H](N)C(=O)O; Pen = CC(C)(S)[C@H](N)C(=O)O; dDab = NCC[C@@H](N)C(=O)O; Orn = NCCC[C@H](N)C(=O)O; Dab = NCC[C@H](N)C(=O)O

Columns and labels:
Format in all cases: cell-based
[1] = tested on: human red blood cells (hRBC); conditions: red cells of human, 1 h, 200 μg/mL
In short: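 Percent hemolysis derived from OD540 of supernatants relative to full lysis by 2.5% Triton X-100 (PBS baseline). Washed fresh human erythrocytes (20% v/v) were exposed to 200 μg/mL peptide for 1 h at 37 °C with shaking.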

[2] = tested on: Escherichia coli MCR-1 Af 45; conditions: MCR-1 Af 45
In short: (§1)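 The MIC is the lowest peptide concentration, in μg/mL, with no visible growth after 18-20 h incubation at 35 °C. Serial two-fold peptide dilutions in water with 0.002% P-80 final were added to bacteria in cation-adjusted MHII broth, about 5×10^5 CFU/mL, following modified CLSI microdilution.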

[3] = tested on: Klebsiella pneumoniae SSI3010; conditions: SSI3010
In short: as §1

[4] = tested on: Escherichia coli ATCC 25922; conditions: ATCC 25922
In short: as §1

| Compound | Escherichia coli MCR-1 Af45 MIC [2] | Klebsiella pneumoniae SSI3010 MIC [3] | Escherichia coli ATCC 25922 MIC [4] | Hemolysis at 0.2 g/L [1] |
| --- | --- | --- | --- | --- |
| CC[C@H](C)[C@H](NC(=O)[C@@H]1C[C@@H](O)CN1C(=O)[C@@H](N)C(C)C)C(=O)N[C@@H]1C(=O)N[C@@H](Cc2ccc(O)cc2)C(=O)N[C@@H](CO)C(=O)N[C@@H](CC(N)=O)C(=O)N[C@@H](CCCNC(=N)N)C(=O)N[C@@H](CCN)C(=O)N[C@@H]([C@@H](C)O)C(=O)N[C@H](CCN)C(=O)N[C@@H](CCCCN)C(=O)N[C@@H](CCCN)C(=O)N[C@@H](CO)C(=O)N[C@H](C(=O)N[C@@H](Cc2ccc(O)cc2)C(=O)O)CSSC1(C)C [Example 55, Val-Hyp-Ile-Pen-Tyr-Ser-Asn-Arg-Dab-Thr-^DDab-Lys-Orn-Ser-Cys-Tyr] (H-V[Hyp]I[Pen]YSNR[Dab]T[dDab]K[Orn]SCY-OH; disulfide 4-15) | 0.25 µg/mL | 0.5 µg/mL | 0.25 µg/mL | <1% |
| CC[C@H](C)[C@H](NC(=O)[C@@H]1C[C@@H](O)CN1C(=O)[C@@H](N)C(C)C)C(=O)N[C@@H]1C(=O)N[C@@H](Cc2ccc(O)cc2)C(=O)N[C@@H](CCN)C(=O)N[C@@H](CC(N)=O)C(=O)N[C@@H](CCCNC(=N)N)C(=O)N[C@@H](CCN)C(=O)N[C@@H]([C@@H](C)O)C(=O)N[C@H](CCN)C(=O)N[C@@H](CCCCN)C(=O)N[C@@H](CCN)C(=O)N[C@@H](CO)C(=O)N[C@H](C(=O)N[C@@H](Cc2ccc(O)cc2)C(=O)O)CSSC1(C)C [Example 56, Val-Hyp-Ile-Pen-Tyr-Dab-Asn-Arg-Dab-Thr-^DDab-Lys-Dab-Ser-Cys-Tyr] (H-V[Hyp]I[Pen]Y[Dab]NR[Dab]T[dDab]K[Dab]SCY-OH; disulfide 4-15) | 0.125 µg/mL | 0.25 µg/mL | 0.25 µg/mL | <1% |
| CC[C@H](C)[C@H](NC(=O)[C@@H]1C[C@@H](O)CN1C(=O)[C@@H](N)C(C)C)C(=O)N[C@@H]1C(=O)N[C@@H](Cc2ccc(O)cc2)C(=O)N[C@@H](CO)C(=O)N[C@@H](CC(N)=O)C(=O)N[C@@H](CCCNC(=N)N)C(=O)N[C@@H](CCN)C(=O)N[C@@H]([C@@H](C)O)C(=O)N[C@H](CCN)C(=O)N[C@@H](CCCCN)C(=O)N[C@@H](CCN)C(=O)N[C@H](CCN)C(=O)N[C@H](C(=O)N[C@@H](Cc2ccc(O)cc2)C(=O)O)CSSC1(C)C [Example 58, Val-Hyp-Ile-Pen-Tyr-Ser-Asn-Arg-Dab-Thr-^DDab-Lys-Dab-^DDab-Cys-Tyr] (H-V[Hyp]I[Pen]YSNR[Dab]T[dDab]K[Dab][dDab]CY-OH; disulfide 4-15) | 0.125 µg/mL | 0.25 µg/mL | 0.125 µg/mL | <1% |
| CC[C@H](C)[C@H](NC(=O)[C@@H]1C[C@@H](O)CN1C(=O)[C@@H](N)C(C)C)C(=O)N[C@@H]1C(=O)N[C@@H](Cc2ccc(O)cc2)C(=O)N[C@@H](CO)C(=O)N[C@@H](CC(N)=O)C(=O)N[C@@H](CCCNC(=N)N)C(=O)N[C@@H](CCN)C(=O)N[C@@H]([C@@H](C)O)C(=O)N[C@H](CCN)C(=O)N[C@@H](CCCCN)C(=O)N[C@@H](CCN)C(=O)N[C@@H](CCCNC(N)=O)C(=O)N[C@H](C(=O)N[C@@H](Cc2ccc(O)cc2)C(=O)O)CSSC1(C)C [Example 59, Val-Hyp-Ile-Pen-Tyr-Ser-Asn-Arg-Dab-Thr-^DDab-Lys-Dab-Cit-Cys-Tyr] (H-V[Hyp]I[Pen]YSNR[Dab]T[dDab]K[Dab][Cit]CY-OH; disulfide 4-15) | 0.25 µg/mL | 0.5 µg/mL | 0.25 µg/mL | <1% |
| CC[C@H](C)[C@H](NC(=O)[C@@H]1C[C@@H](O)CN1C(=O)[C@@H](N)C(C)C)C(=O)N[C@@H]1C(=O)N[C@@H](Cc2ccc(O)cc2)C(=O)N[C@@H](CO)C(=O)N[C@@H](CC(N)=O)C(=O)N[C@@H](CCCNC(=N)N)C(=O)N[C@@H](CCN)C(=O)N[C@@H]([C@@H](C)O)C(=O)N[C@H](CCN)C(=O)N[C@@H](CCCCN)C(=O)N[C@@H](CCN)C(=O)N[C@@H](Cc2ccc(O)cc2)C(=O)N[C@H](C(=O)N[C@@H](Cc2ccc(O)cc2)C(=O)O)CSSC1(C)C [Example 60, Val-Hyp-Ile-Pen-Tyr-Ser-Asn-Arg-Dab-Thr-^DDab-Lys-Dab-Tyr-Cys-Tyr] (H-V[Hyp]I[Pen]YSNR[Dab]T[dDab]K[Dab]YCY-OH; disulfide 4-15) | 0.25 µg/mL | 1 µg/mL | 0.25 µg/mL | <1% |
| CC[C@H](C)[C@H](NC(=O)[C@@H]1C[C@@H](O)CN1C(=O)[C@@H](N)C(C)C)C(=O)N[C@@H]1C(=O)N[C@@H](Cc2ccc(O)cc2)C(=O)N[C@@H](CO)C(=O)N[C@@H](CC(N)=O)C(=O)N[C@@H](CCCNC(=N)N)C(=O)N[C@@H](CCN)C(=O)N[C@@H]([C@@H](C)O)C(=O)N[C@H](CCN)C(=O)N[C@@H](CCCCN)C(=O)N[C@@H](CCN)C(=O)N[C@@H](CC(N)=O)C(=O)N[C@H](C(=O)N[C@@H](Cc2ccc(O)cc2)C(=O)O)CSSC1(C)C [Example 61, Val-Hyp-Ile-Pen-Tyr-Ser-Asn-Arg-Dab-Thr-^DDab-Lys-Dab-Asn-Cys-Tyr] (H-V[Hyp]I[Pen]YSNR[Dab]T[dDab]K[Dab]NCY-OH; disulfide 4-15) | 0.25 µg/mL | 0.5 µg/mL | 0.25 µg/mL | <1% |

Now from value to compound, other results behind:

| Escherichia coli MCR-1 Af45 MIC [2] | Klebsiella pneumoniae SSI3010 MIC [3] | Escherichia coli ATCC 25922 MIC [4] | Compound | Hemolysis at 0.2 g/L [1] |
| --- | --- | --- | --- | --- |
| 0.0625 µg/mL | 0.25 µg/mL | 0.125 µg/mL | CC[C@H](C)[C@H](NC(=O)[C@@H]1C[C@@H](O)CN1C(=O)[C@@H](N)C(C)C)C(=O)N[C@@H]1C(=O)N[C@@H](Cc2ccc(O)cc2)C(=O)N[C@@H](CO)C(=O)N[C@@H](CC(N)=O)C(=O)N[C@@H](CCCNC(=N)N)C(=O)N[C@@H](CCN)C(=O)N[C@@H]([C@@H](C)O)C(=O)N[C@H](CCN)C(=O)N[C@@H](CCCCN)C(=O)N[C@@H](CCN)C(=O)N[C@@H](CCCCN)C(=O)N[C@H](C(=O)N[C@@H](Cc2ccc(O)cc2)C(=O)O)CSSC1(C)C [Example 62, Val-Hyp-Ile-Pen-Tyr-Ser-Asn-Arg-Dab-Thr-^DDab-Lys-Dab-Lys-Cys-Tyr] (H-V[Hyp]I[Pen]YSNR[Dab]T[dDab]K[Dab]KCY-OH; disulfide 4-15) | <1% |
| 0.0625 µg/mL | 0.25 µg/mL | 0.125 µg/mL | CC[C@H](C)[C@H](NC(=O)[C@@H]1C[C@@H](O)CN1C(=O)[C@@H](N)C(C)C)C(=O)N[C@@H]1C(=O)N[C@@H](Cc2ccc(O)cc2)C(=O)N[C@@H](CO)C(=O)N[C@@H](CC(N)=O)C(=O)N[C@@H](CCCNC(=N)N)C(=O)N[C@@H](CCN)C(=O)N[C@@H]([C@@H](C)O)C(=O)N[C@H](CCN)C(=O)N[C@@H](CCCCN)C(=O)N[C@@H](CCN)C(=O)N[C@@H](CCNC(C)C)C(=O)N[C@H](C(=O)N[C@@H](Cc2ccc(O)cc2)C(=O)O)CSSC1(C)C [Example 63, Val-Hyp-Ile-Pen-Tyr-Ser-Asn-Arg-Dab-Thr-^DDab-Lys-Dab-Dab(iPr)-Cys-Tyr] (H-V[Hyp]I[Pen]YSNR[Dab]T[dDab]K[Dab][Dab(iPr)]CY-OH; disulfide 4-15) | <1% |
| 0.0625 µg/mL | 0.125 µg/mL | 0.0625 µg/mL | CC[C@H](C)[C@H](NC(=O)[C@@H]1C[C@@H](O)CN1C(=O)[C@@H](N)C(C)C)C(=O)N[C@@H]1C(=O)N[C@@H](Cc2ccc(O)cc2)C(=O)N[C@@H](CO)C(=O)N[C@@H](CC(N)=O)C(=O)N[C@@H](CCCNC(=N)N)C(=O)N[C@@H](CCN)C(=O)N[C@@H]([C@@H](C)O)C(=O)N[C@H](CCN)C(=O)N[C@@H](CCCCN)C(=O)N[C@@H](CCN)C(=O)N[C@@H](CCCN)C(=O)N[C@H](C(=O)N[C@@H](Cc2ccc(O)cc2)C(=O)O)CSSC1(C)C [Example 64, Val-Hyp-Ile-Pen-Tyr-Ser-Asn-Arg-Dab-Thr-^DDab-Lys-Dab-Orn-Cys-Tyr] (H-V[Hyp]I[Pen]YSNR[Dab]T[dDab]K[Dab][Orn]CY-OH; disulfide 4-15) | <1% |
| 0.0625 µg/mL | 0.25 µg/mL | 0.25 µg/mL | CC[C@H](C)[C@H](NC(=O)[C@@H]1C[C@@H](O)CN1C(=O)[C@@H](N)C(C)C)C(=O)N[C@@H]1C(=O)N[C@@H](Cc2ccc(O)cc2)C(=O)N[C@@H](CO)C(=O)N[C@@H](CC(N)=O)C(=O)N[C@@H](CCCNC(=N)N)C(=O)N[C@@H](CCN)C(=O)N[C@@H]([C@@H](C)O)C(=O)N[C@H](CCN)C(=O)N[C@@H](CCCCN)C(=O)N[C@@H](CCN)C(=O)N[C@@H](CCN)C(=O)N[C@H](C(=O)N[C@@H](CC2CCCCC2)C(=O)O)CSSC1(C)C [Example 65, Val-Hyp-Ile-Pen-Tyr-Ser-Asn-Arg-Dab-Thr-^DDab-Lys-Dab-Dab-Cys-Cha] (H-V[Hyp]I[Pen]YSNR[Dab]T[dDab]K[Dab][Dab]C[Cha]-OH; disulfide 4-15) | <1% |
